Legend:
Assay type in all cases: in vivo
[1] = system: Diabrotica balteata (Corn Root Worm); assay: Example B1: Diabrotica balteata (Corn Root Worm), sprayed maize sprouts; conditions: 96 h, application rate of 200 ppm, L2 larvae, 4 days after infestation, read-out: control in at least one of the two categories (mortality or growth inhibition)
Procedure: Example B1: Diabrotica balteata (Corn Root Worm)
Maize sprouts placed onto an agar layer in 24-well microtiter plates were treated with aqueous test solutions prepared from 10′000 ppm DMSO stock solutions by spraying. After drying, the plates were infested with L2 larvae (6 to 10 per well). The samples were assessed for mortality and growth inhibition in comparison to untreated samples 4 days after infestation.

[2] = system: Euschistus heros (Neotropical Brown Stink Bug); assay: Example B2: Euschistus heros (Neotropical Brown Stink Bug), sprayed soybean leaves; conditions: 120 h, application rate of 200 ppm, N2 nymphs, 5 days after infestation, read-out: control in at least one of the two categories (mortality or growth inhibition)
Procedure: Example B2: Euschistus heros (Neotropical Brown Stink Bug)
Soybean leaves on agar in 24-well microtiter plates were sprayed with aqueous test solutions prepared from 10′000 ppm DMSO stock solutions. After drying the leaves were infested with N2 nymphs. The samples were assessed for mortality and growth inhibition in comparison to untreated samples 5 days after infestation.

[3] = system: Chilo suppressalis (Striped Rice Stemborer); assay: Example B4: Chilo suppressalis (Striped Rice Stemborer), artificial diet; conditions: 144 h, application rate of 200 ppm, L2 larvae, 6 days after infestation, read-out: control in at least one of the three categories (mortality, anti-feedant or growth inhibition)
Method in brief: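 Artificial diet was treated with aqueous dilutions made from 10'000 ppm DMSO stocks, dried, then infested with L2 larvae at 6–8 per well. Mortality, antifeedant effect and growth inhibition were assessed against untreated samples 6 days after infestation.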

[4] = system: Plutella xylostella (Diamond Back Moth); assay: Example B5: Plutella xylostella (Diamond Back Moth), artificial diet, 24-well; conditions: 192 h, application rate of 200 ppm, eggs, 8 days after infestation, read-out: control in at least one of the two categories (mortality or growth inhibition)
Procedure: Example B5: Plutella xylostella (Diamond Back Moth)
24-well microtiter plates with artificial diet were treated with aqueous test solutions prepared from 10′000 ppm DMSO stock solutions by pipetting. After drying, Plutella eggs were pipetted through a plastic stencil onto a gel blotting paper and the plate was closed with it. The samples were assessed for mortality and growth inhibition in comparison to untreated samples 8 days after infestation.

[5] = system: Spodoptera littoralis (Egyptian Cotton Leaf Worm); assay: Example B9: Spodoptera littoralis (Egyptian Cotton Leaf Worm), sprayed cotton leaf discs; conditions: foliar, 72 h, application rate of 200 ppm, L1 larvae, 3 days after infestation, read-out: control in at least one of the three categories (mortality, anti-feedant or growth inhibition)
[6] = system: Spodoptera littoralis (Egyptian Cotton Leaf Worm); assay: Example B10: Spodoptera littoralis (Egyptian Cotton Leaf Worm), uptake by lettuce roots from agar; conditions: 144 h, test rate of 12.5 ppm, compound absorbed by lettuce roots, eggs, 6 days after infestation, read-out: control in at least one of the three categories (mortality, anti-feeding, or growth inhibition)
Excerpt: Example B10: Spodoptera littoralis (Egyptian Cotton Leaf Worm)
Test compounds were applied by pipette from 10′000 ppm DMSO stock solutions into 24-well plates and mixed with agar. Lettuce seeds were placed onto the agar and the multi well plate was closed by another plate which contained also agar. After 7 days the compound was absorbed by the roots and the lettuce grew into the lid plate. The lettuce leaves were then cut off into the lid plate. Spodoptera eggs were pipetted through a plastic stencil onto a humid gel blotting paper and the lid plate was closed with it. The samples were assessed for mortality, anti-feedant effect and growth inhibition in comparison to untreated samples 6 days after infestation.

[7] = system: Myzus persicae (Green Peach Aphid); assay: Example B12: Myzus persicae (Green Peach Aphid), 96-well sucrose solution; conditions: 120 h, application rate of 50 ppm, 5 days after infestation
Excerpt: Example B12: Myzus persicae (Green Peach Aphid)
Test compounds prepared from 10′000 ppm DMSO stock solutions were applied by a liquid handling robot into 96-well microtiter plates and mixed with a sucrose solution. Parafilm was stretched over the 96-well microtiter plate and a plastic stencil with 96 holes was placed onto the plate. Aphids were sieved into the wells directly onto the Parafilm. The infested plates were closed with a gel blotting card and a second plastic stencil and then turned upside down. The samples were assessed for mortality 5 days after infestation.

[8] = system: Plutella xylostella (Diamondback Moth); assay: Example B13: Plutella xylostella (Diamondback Moth), artificial diet, 96-well; conditions: 216 h, application rate of 500 ppm, eggs/L1 larvae, 9 days after infestation
Procedure: Example B13: Plutella xylostella (Diamondback Moth)
96-well microtiter plates containing artificial diet were treated with aqueous test solutions, prepared from 10′000 ppm DMSO stock solutions, by a liquid handling robot. After drying, eggs (˜30 per well) were infested onto a netted lid which was suspended above the diet. The eggs hatch and L1 larvae move down to the diet. The samples were assessed for mortality 9 days after infestation.

[9] = system: Myzus persicae (Green Peach Aphid); assay: Example B8: Myzus persicae (Green Peach Aphid): Intrinsic Activity; conditions: 120 h, test rate of 12 ppm, sucrose solution, 5 days after infestation
Excerpt: Example B8: Myzus persicae (Green Peach Aphid): Intrinsic Activity
Test compounds prepared from 10′000 ppm DMSO stock solutions were applied by pipette into 24-well microtiter plates and mixed with sucrose solution. The plates were closed with a stretched Parafilm. A plastic stencil with 24 holes was placed onto the plate and infested pea seedlings were placed directly on the Parafilm. The infested plate was closed with a gel blotting paper and another plastic stencil and then turned upside down. The samples were assessed for mortality 5 days after infestation.

CC(NC(=O)c1cc(C(F)(F)F)nc(C2(C#N)CC2)c1)c1nccnc1-c1ncc(OC(F)F)cn1 (stereo not shown) [P36, 2-(1-cyanocyclopropyl)-N-[1-[3-[5-(difluoromethoxy)pyrimidin-2-yl]pyrazin-2-yl]ethyl]-6-(trifluoromethyl)pyridine-4-carboxamide]
≥ 80%: percent control (mortality or growth inhibition) at 200 ppm [1] | percent control (mortality or growth inhibition) at 200 ppm [2] | percent control (mortality, anti-feedant effect or growth inhibition) at 200 ppm [3] | percent control (mortality or growth inhibition) at 200 ppm [4] | percent control (mortality, anti-feedant effect or growth inhibition) at 200 ppm [5] | percent control (mortality, anti-feeding or growth inhibition) at 12.5 ppm [6] | mortality at 50 ppm [7] | mortality at 500 ppm [8]

CC(NC(=O)c1cc(C(F)(F)F)cc(C(C)(C)C#N)c1)c1nccnc1-c1ncc(OCC(F)(F)F)cn1 (stereo not shown) [P47, 3-(1-cyano-1-methyl-ethyl)-N-[1-[3-[5-(2,2,2-trifluoroethoxy)pyrimidin-2-yl]pyrazin-2-yl]ethyl]-5-(trifluoromethyl)benzamide]
≥ 80%: percent control (mortality or growth inhibition) at 200 ppm [1] | percent control (mortality or growth inhibition) at 200 ppm [2] | percent control (mortality, anti-feedant effect or growth inhibition) at 200 ppm [3] | percent control (mortality or growth inhibition) at 200 ppm [4] | mortality at 12 ppm [9] | percent control (mortality, anti-feedant effect or growth inhibition) at 200 ppm [5]

CC(NC(=O)c1cc(C(F)(F)F)cc(C2(C#N)CC2)c1)c1nccnc1-c1ccc(C#N)cn1 (stereo not shown) [P25, 3-(1-cyanocyclopropyl)-N-[1-[3-(5-cyano-2-pyridyl)pyrazin-2-yl]eth-yl]-5-(trifluoromethyl)benzamide]
≥ 80%: percent control (mortality or growth inhibition) at 200 ppm [1] | percent control (mortality, anti-feedant effect or growth inhibition) at 200 ppm [3] | percent control (mortality or growth inhibition) at 200 ppm [4] | percent control (mortality, anti-feedant effect or growth inhibition) at 200 ppm [5] | mortality at 50 ppm [7] | mortality at 500 ppm [8]

CC(NC(=O)c1cc(C(F)(F)F)cc(S(=O)(=O)C(F)(F)F)c1)c1nccnc1-c1ncc(OCC(F)F)cn1 (stereo not shown) [P28, N-[1-[3-[5-(2,2-difluoroethoxy)pyrimidin-2-yl]pyrazin-2-yl]ethyl]-3-(trifluoromethyl)-5-(trifluoromethylsulfonyl)benzamide]
≥ 80%: percent control (mortality or growth inhibition) at 200 ppm [1] | percent control (mortality or growth inhibition) at 200 ppm [2] | percent control (mortality, anti-feedant effect or growth inhibition) at 200 ppm [3] | percent control (mortality or growth inhibition) at 200 ppm [4] | percent control (mortality, anti-feedant effect or growth inhibition) at 200 ppm [5] | mortality at 500 ppm [8]

CC(NC(=O)c1cc(C(F)(F)F)cc(C2(C#N)CC2)c1)c1nccnc1-c1ncc(OC(F)F)cn1 (stereo not shown) [P32, 3-(1-cyanocyclopropyl)-N-[1-[3-[5-(difluoromethoxy)pyrimidin-2-yl]pyrazin-2-yl]ethyl]-5-(trifluoromethyl)benzamide]
≥ 80%: percent control (mortality or growth inhibition) at 200 ppm [1] | percent control (mortality or growth inhibition) at 200 ppm [2] | percent control (mortality, anti-feedant effect or growth inhibition) at 200 ppm [3] | percent control (mortality or growth inhibition) at 200 ppm [4] | mortality at 12 ppm [9] | percent control (mortality, anti-feedant effect or growth inhibition) at 200 ppm [5] | percent control (mortality, anti-feeding or growth inhibition) at 12.5 ppm [6] | mortality at 50 ppm [7] | mortality at 500 ppm [8]

CC(NC(=O)c1cc(C(F)(F)F)nc(C2(C#N)CC2)c1)c1nccnc1-c1ncc(OCC(F)F)cn1 (stereo not shown) [P40, 2-(1-cyanocyclopropyl)-N-[1-[3-[5-(2,2-difluoroethoxy)pyrimidin-2-yl]pyrazin-2-yl]ethyl]-6-(trifluoromethyl)pyridine-4-carboxamide]
≥ 80%: percent control (mortality or growth inhibition) at 200 ppm [1] | percent control (mortality or growth inhibition) at 200 ppm [2] | percent control (mortality, anti-feedant effect or growth inhibition) at 200 ppm [3] | percent control (mortality or growth inhibition) at 200 ppm [4] | mortality at 12 ppm [9] | percent control (mortality, anti-feedant effect or growth inhibition) at 200 ppm [5] | percent control (mortality, anti-feeding or growth inhibition) at 12.5 ppm [6] | mortality at 50 ppm [7] | mortality at 500 ppm [8]

CC(NC(=O)c1cc(C(F)(F)F)nc(C2(C#N)CC2)c1)c1nccnc1-c1ncc(OCC(F)(F)F)cn1 (stereo not shown) [P34, 2-(1-cyanocyclopropyl)-N-[1-[3-[5-(2,2,2-trifluoroethoxy)pyrimidin-2-yl]pyrazin-2-yl]ethyl]-6-(trifluoromethyl)pyridine-4-carboxamide]
≥ 80%: percent control (mortality or growth inhibition) at 200 ppm [1] | percent control (mortality or growth inhibition) at 200 ppm [2] | percent control (mortality, anti-feedant effect or growth inhibition) at 200 ppm [3] | percent control (mortality or growth inhibition) at 200 ppm [4] | mortality at 12 ppm [9] | percent control (mortality, anti-feedant effect or growth inhibition) at 200 ppm [5] | percent control (mortality, anti-feeding or growth inhibition) at 12.5 ppm [6] | mortality at 50 ppm [7] | mortality at 500 ppm [8]

CC(NC(=O)c1cc(C(F)(F)F)cc(C2(C#N)CC2)c1)c1nccnc1-c1ncc(OCC(F)(F)F)cn1 (stereo not shown) [P2, 3-(1-cyanocyclopropyl)-N-[1-[3-[5-(2,2,2-trifluoroethoxy)pyrimidin-2-yl]pyrazin-2-yl]ethyl]-5-(trifluoromethyl)benzamide]
≥ 80%: percent control (mortality or growth inhibition) at 200 ppm [1] | percent control (mortality or growth inhibition) at 200 ppm [2] | percent control (mortality, anti-feedant effect or growth inhibition) at 200 ppm [3] | percent control (mortality or growth inhibition) at 200 ppm [4] | mortality at 12 ppm [9] | percent control (mortality, anti-feedant effect or growth inhibition) at 200 ppm [5]

CC(NC(=O)c1cc(C2CC2)cc(C(F)(F)F)c1)c1nccnc1-c1ncc(OCC(F)F)cn1 (stereo not shown) [P37, 3-cyclopropyl-N-[1-[3-[5-(2,2-difluoroethoxy)pyrimidin-2-yl]pyrazin-2-yl]ethyl]-5-(trifluoromethyl)benzamide]
≥ 80%: percent control (mortality or growth inhibition) at 200 ppm [1] | percent control (mortality, anti-feedant effect or growth inhibition) at 200 ppm [3] | percent control (mortality or growth inhibition) at 200 ppm [4] | mortality at 12 ppm [9] | percent control (mortality, anti-feedant effect or growth inhibition) at 200 ppm [5] | mortality at 500 ppm [8]

CC(NC(=O)c1cc(C(F)(F)F)cc(C(C)(C)C#N)c1)c1nccnc1-c1ccc(C#N)cn1 (stereo not shown) [P9, 3-(1-cyano-1-methyl-ethyl)-N-[1-[3-(5-cyano-2-pyridyl)pyrazin-2-yl]ethyl]-5-(trifluoromethyl)benzamide]
≥ 80%: percent control (mortality or growth inhibition) at 200 ppm [1] | percent control (mortality, anti-feedant effect or growth inhibition) at 200 ppm [3] | percent control (mortality or growth inhibition) at 200 ppm [4] | mortality at 12 ppm [9] | percent control (mortality, anti-feedant effect or growth inhibition) at 200 ppm [5]

CC(NC(=O)c1cc(C(F)(F)F)cc(C(F)(F)C2CC2)c1)c1nccnc1-c1ncc(OC(F)F)cn1 (stereo not shown) [P29, 3-[cyclopropyl(difluoro)methyl]-N-[1-[3-[5-(difluoromethoxy)pyrimidin-2-yl]pyrazin-2-yl]ethyl]-5-(trifluoromethyl)benzamide]
≥ 80%: percent control (mortality or growth inhibition) at 200 ppm [1] | percent control (mortality or growth inhibition) at 200 ppm [2] | percent control (mortality, anti-feedant effect or growth inhibition) at 200 ppm [3] | percent control (mortality or growth inhibition) at 200 ppm [4] | percent control (mortality, anti-feedant effect or growth inhibition) at 200 ppm [5] | mortality at 500 ppm [8]
